The assay addresses human recombinant H-PGDS (Homo sapiens, UniProt O60760). The assay can be described thus: Slightly modified fluorescence intensity h-PGDS TBA enzyme assay (1:40,000 enzyme, 40 second reaction, 1/2 log dilutions, top concentration typically 10 μM). It is filed as biochemical. The settings on record: slightly modified assay: 1:40,000 human recombinant H-PGDS. In short, it runs like this: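 Enzyme pre-incubated 10 min at room temperature with inhibitor in 100 mM Trizma pH 8.0, 100 μM MgCl2, 0.1 mg/ml rabbit IgG, 2.5 mM glutathione, 0.5% DMSO; reaction started with 5.0 μM PGH2 and stopped with FeCl2/citric acid. Remaining PGH2 quantified as MDA–TBA fluorescence (ex 530/em 560 nm); IC50 from 4-parameter fit, 11 concentrations in duplicate.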
Sequence of human recombinant H-PGDS (O60760 whole entry): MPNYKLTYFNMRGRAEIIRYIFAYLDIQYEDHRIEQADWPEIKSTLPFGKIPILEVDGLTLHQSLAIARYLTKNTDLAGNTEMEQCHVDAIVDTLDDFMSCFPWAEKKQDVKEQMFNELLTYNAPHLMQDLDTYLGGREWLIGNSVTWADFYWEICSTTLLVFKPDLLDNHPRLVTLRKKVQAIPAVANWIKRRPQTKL
The IC50 is the point on the concentration scale where inhibition reaches its midpoint. On to `O=C(N[C@H]1CC[C@@H](CN2CCOCC2)CC1)c1ccc(-c2cccc(F)c2)nc1` [Example 80, 6-(3-Fluorophenyl)-N-[cis-4-(morpholin-4-ylmethyl)cyclohexyl]nicotinamide], for which the IC50 came out at 0.0166 µM. For `CN1CCN(C[C@H]2CC[C@@H](NC(=O)c3ccc(-c4cccc(F)c4)nc3)CC2)CC1` [Example 81, 6-(3-Fluorophenyl)-N-{cis-4-[(4-methylpiperazin-1-yl)methyl]cyclohexyl}nicotinamide] the value was 0.0534 µM; for `Cn1nnnc1O[C@H]1CC[C@H](NC(=O)c2ccc(-c3cccc(F)c3)nc2)CC1` [Example 82, 6-(3-Fluorophenyl)-N-{trans-4-[(1-methyl-1H-tetrazol-5-yl)oxy]cyclohexyl}nicotinamide], 0.0126 µM; for `CO[C@H]1CC[C@H](NC(=O)c2ccc(-c3cccc(F)c3)nc2)CC1` [Example 83, 6-(3-Fluorophenyl)-N-(trans-4-methoxycyclohexyl)nicotinamide], 0.00693 µM. For the compound `O=C(N[C@H]1CC[C@H](C(=O)O)CC1)c1ccc(-c2cccc(F)c2)nc1` [Example 84, trans-4-({[6-(3-fluorophenyl)pyridin-3yl]carbonyl}amino)cyclohexanecarboxylic acid], the IC50 turned out to be 0.0398 µM. Take `O=C(N[C@H]1CC[C@H](C(=O)N2CCC(O)CC2)CC1)c1ccc(-c2cccc(F)c2)nc1` [Example 85, 6-(3-Fluorophenyl)-N-{trans-4-[(4-hydroxypiperidin-1-yl)carbonyl]cyclohexyl}nicotinamide]: the IC50 came to 0.00275 µM. For `O=C(N[C@H]1CC[C@H](C(=O)NC2CCCC2)CC1)c1ccc(-c2cccc(F)c2)nc1` [Example 86, N-[trans-4-(Cyclopentylcarbamoyl)cyclohexyl]-6-(3-fluorophenyl)nicotinamide], the IC50 was found to be 0.0256 µM. For `O=C(N[C@H]1CC[C@H](C(=O)N2CCCC2)CC1)c1ccc(-c2cccc(F)c2)nc1` [Example 87, 6-(3-Fluorophenyl)-N-[trans-4-(pyrrolidin-1-ylcarbonyl)cyclohexyl]nicotinamide] the value was 0.00207 µM. For `CC(C)NC(=O)[C@H]1CC[C@H](NC(=O)c2ccc(-c3cccc(F)c3)nc2)CC1` [Example 88, 6-(3-Fluorophenyl)-N-[trans-4-(isopropylcarbamoyl)cyclohexyl]nicotinamide], the IC50 came out at 0.0147 µM. Take `O=C(N[C@H]1CC[C@H](OCCO)CC1)c1ccc(-c2cccc(F)c2)nc1` [Example 89, 6-(3-Fluorophenyl)-N-[trans-4-(2-hydroxyethoxy)cyclohexyl]nicotinamide]: the 50% inhibitory concentration (IC50) worked out at 0.00393 µM.

In the case of `CN1CCN(C(=O)[C@H]2CC[C@H](NC(=O)c3ccc(-c4cccc(F)c4)nc3)CC2)CC1` [Example 90, 6-(3-Fluorophenyl)-N-{trans-4-[(4-methylpiperazin-1-yl)carbonyl]cyclohexyl}nicotinamide], the IC50 is 0.0126 µM. For `O=C(N[C@H]1CC[C@H](C(=O)N2CCOCC2)CC1)c1ccc(-c2cccc(F)c2)nc1` [Example 91, 6-(3-Fluorophenyl)-N-[trans-4-(morpholin-4-ylcarbonyl)cyclohexyl]nicotinamide] the value was 0.00394 µM; for `CN(C)C(=O)[C@H]1CC[C@H](NC(=O)c2ccc(-c3cccc(F)c3)nc2)CC1` [Example 92, N-[trans-4-(Dimethylcarbamoyl)cyclohexyl]-6-(3-fluorophenyl)nicotinamide], 0.00271 µM; for `CNCCN(C)C(=O)[C@H]1CC[C@H](NC(=O)c2ccc(-c3cccc(F)c3)nc2)CC1` [Example 93, 6-(3-Fluorophenyl)-N-(trans-4-{methyl[2-(methylamino)ethyl]carbamoyl}cyclohexyl)nicotinamide], 0.0153 µM. Regarding `CN[C@H]1CC[C@H](NC(=O)c2ccc(-c3cccc(F)c3)nc2)CC1` [Example 94, 6-(3-Fluorophenyl)-N-[trans-4-(methylamino)cyclohexyl]-nicotinamide], the IC50 was 0.0519 µM.

With `CN(C)C(=O)C[C@H]1CC[C@H](NC(=O)c2ccc(-c3cccc(F)c3)nc2)CC1` [Example 95, N-{trans-4-[2-(Dimethylamino)-2-oxoethyl]cyclohexyl}-6-(3-fluorophenyl)nicotinamide], the IC50 stood at 0.00628 µM. As for `CCN1CCN(C(=O)[C@H]2CC[C@H](NC(=O)c3ccc(-c4cccc(F)c4)nc3)CC2)CC1` [Example 96, N-{trans-4-[(4-Ethylpiperazin-1-yl)carbonyl]cyclohexyl}-6-(3-fluorophenyl)nicotinamide], the half-maximal inhibitory concentration (IC50) is 0.0237 µM. As to `CC(C)(O)[C@H]1CC[C@H](NC(=O)c2ccc(-c3cccc(F)c3)nc2)CC1` [Example 97, 6-(3-Fluorophenyl)-N-[trans-4-(1-hydroxy-1-methylethyl)cyclohexyl]nicotinamide], the IC50 was 0.0029 µM. `N[C@H]1CCN(C(=O)[C@H]2CC[C@H](NC(=O)c3ccc(-c4cccc(F)c4)nc3)CC2)C1` [Example 98, N-(trans-4-{[(3S)-3-Aminopyrrolidin-1-yl]carbonyl}cyclohexyl)-6-(3-fluorophenyl)nicotinamide]: the IC50 came to 0.0216 µM. As for `N[C@@H]1CCN(C(=O)[C@H]2CC[C@H](NC(=O)c3ccc(-c4cccc(F)c4)nc3)CC2)C1` [Example 99, N-(trans-4-{[(3R)-3-Aminopyrrolidin-1-yl]carbonyl}cyclohexyl)-6-(3-fluorophenyl)nicotinamide], the figure is 0.0112 µM.

As for `NC1CN(C(=O)[C@H]2CC[C@H](NC(=O)c3ccc(-c4cccc(F)c4)nc3)CC2)C1` [Example 100, N-{trans-4-[(3-Aminoazetidin-1-yl)carbonyl]cyclohexyl}-6-(3-fluorophenyl)nicotinamide], the IC50 came to 0.0129 µM. For `C[C@H]1CN(C(=O)[C@H]2CC[C@H](NC(=O)c3ccc(-c4cccc(F)c4)nc3)CC2)CCN1` [Example 101, 6-(3-Fluorophenyl)-N-(trans-4-{[(3S)-3-methylpiperazin-1-yl]carbonyl}cyclohexyl)nicotinamide] the value was 0.0158 µM; for `C[C@@H]1CN(C(=O)[C@H]2CC[C@H](NC(=O)c3ccc(-c4cccc(F)c4)nc3)CC2)CCN1` [Example 102, 6-(3-Fluorophenyl)-N-(trans-4-{[(3R)-3-methylpiperazin-1-yl]carbonyl}cyclohexyl)nicotinamide], 0.00974 µM; for `O=C(N[C@H]1CC[C@H](CO)CC1)c1ccc(-c2cccc(F)c2)nc1` [Example 103, 6-(3-Fluorophenyl)-N-[trans-4-(hydroxymethyl)cyclohexyl]nicotinamide], 0.00143 µM. For the compound `Cc1nccn1[C@H]1CC[C@H](NC(=O)c2ccc(-c3cccc(F)c3)nc2)CC1` [Example 105, 6-(3-Fluorophenyl)-N-[trans-4-(2-methyl-1H-imidazol-1-yl)cyclohexyl]nicotinamide], the half-inhibitory concentration (IC50) is 0.0147 µM. In the case of `CC(C)c1nccn1[C@H]1CC[C@H](NC(=O)c2ccc(-c3cccc(F)c3)nc2)CC1` [Example 106, 6-(3-Fluorophenyl)-N-[trans-4-(2-isopropyl-1H-imidazol-1-yl)cyclohexyl]nicotinamide], the IC50 amounted to 0.0142 µM.

`O=C(N[C@H]1CC[C@H](C(=O)N2CCN(C3CC3)CC2)CC1)c1ccc(-c2cccc(F)c2)nc1` [Example 107, N-{trans-4-[(4-Cyclopropylpiperazin-1-yl)carbonyl]cyclohexyl}-6-(3-fluorophenyl)nicotinamide]: the IC50 was 0.0311 µM.

With `C[C@@H]1CNCCN1C(=O)[C@H]1CC[C@H](NC(=O)c2ccc(-c3cccc(F)c3)nc2)CC1` [Example 108, 6-(3-Fluorophenyl)-N-(trans-4-{[(2R)-2-methylpiperazin-1-yl]carbonyl}cyclohexyl)nicotinamide], the IC50 was determined as 0.0218 µM.

As to `C[C@H]1CNCCN1C(=O)[C@H]1CC[C@H](NC(=O)c2ccc(-c3cccc(F)c3)nc2)CC1` [Example 109, 6-(3-Fluorophenyl)-N-(trans-4-{[(2S)-2-methylpiperazin-1-yl]carbonyl}cyclohexyl)nicotinamide], the IC50 was found to be 0.0167 µM.

In the case of `O=C(N[C@H]1CC[C@H](CN2CCOCC2)CC1)c1ccc(-c2cccc(F)c2)nc1` [Example 110, 6-(3-Fluorophenyl)-N-[trans-4-(morpholin-4-ylmethyl)cyclohexyl]nicotinamide], the IC50 is 0.0059 µM. For `CN1CCN(C[C@H]2CC[C@H](NC(=O)c3ccc(-c4cccc(F)c4)nc3)CC2)CC1` [Example 111, 6-(3-Fluorophenyl)-N-{trans-4-[(4-methylpiperazin-1-yl)methyl]cyclohexyl}nicotinamide], the IC50 is 0.023 µM. As for `CN(C)C[C@H]1CC[C@H](NC(=O)c2ccc(-c3cccc(F)c3)nc2)CC1` [Example 112, N-{trans-4-[(Dimethylamino)methyl]cyclohexyl}-6-(3-fluorophenyl)nicotinamide], the figure is 0.0158 µM; as for `Cc1nccn1C[C@H]1CC[C@H](NC(=O)c2ccc(-c3cccc(F)c3)nc2)CC1` [Example 113, 6-(3-Fluorophenyl)-N-{trans-4-[(2-methyl-1H-imidazol-1-yl)methyl]cyclohexyl}nicotinamide], 0.00976 µM. In the case of `C[C@]1(O)CC[C@H](NC(=O)c2ccc(-c3cccc(F)c3)nc2)CC1` [Example 115, 6-(3-Fluorophenyl)-N-(trans-4-hydroxy-4-methylcyclohexyl)nicotinamide], the IC50 was 0.00874 µM. As to `C[C@]1(C(=O)O)CC[C@@H](NC(=O)c2ccc(-c3cccc(F)c3)nc2)CC1` [Example 116, cis-4-({[6-(3-Fluorophenyl)pyridin-3-yl]carbonyl}amino)-1-methylcyclohexanecarboxylic acid], the IC50 is 0.139 µM.

In the case of `C[C@]1(C(=O)O)CC[C@H](NC(=O)c2ccc(-c3cccc(F)c3)nc2)CC1` [Example 117, trans-4-({[6-(3-Fluorophenyl)pyridin-3-yl]carbonyl}amino)-1-methylcyclohexanecarboxylic acid], the IC50 came to 0.00717 µM.
